Experimental data reported in ChEMBL document CHEMBL4177620, “A comparative study of warheads for design of cysteine protease inhibitors” (Bioorg Med Chem Lett, 2017).
The source made the active and inactive calls. No cut-off for these calls is given here. Non-standard residues stand in square brackets, D forms with d. Residues, ends and D or L forms follow the SMILES beside them. *: point of attachment. Cbz = O=C(OCc1ccccc1)*; Ac3c = NC1(C(=O)O)CC1

Tests used:
[1] = molecular target: Cruzipain (Trypanosoma cruzi, UniProt P25779); experiment: Inhibition of recombinant Trypanosoma cruzi cruzain using Z-phe-Arg-7-amido-4-methylcoumarin as substrate by fluorometric method
[2] = test system: Trypanosoma cruzi; experiment: Antitrypanosomal activity against amastigote form of Trypanosoma cruzi Y infected in human U2OS cells; assay type: functional, organism-based
[3] = Cytotoxicity against human U2OS cells; assay type: cell-based
[4] = molecular target: Cruzipain (Trypanosoma cruzi) (UniProt P25779); experiment: Reversible inhibition of recombinant Trypanosoma cruzi cruzain using Z-phe-Arg-7-amido-4-methylcoumarin as substrate by fluorometric method
[5] = molecular target: Cruzipain (Trypanosoma cruzi) (UniProt P25779); experiment: Inhibition of recombinant Trypanosoma cruzi cruzain assessed as dissociation rate constant using Z-phe-Arg-7-amido-4-methylcoumarin as substrate by fluorometric method
[6] = molecular target: Cruzipain (Trypanosoma cruzi) (UniProt P25779); experiment: Irreversible inhibition of recombinant Trypanosoma cruzi cruzain using Z-phe-Arg-7-amido-4-methylcoumarin as substrate by fluorometric method
[7] = molecular target: Cruzipain (Trypanosoma cruzi) (UniProt P25779); experiment: Ratio of Kinact to Ki for recombinant Trypanosoma cruzi cruzain using Z-phe-Arg-7-amido-4-methylcoumarin as substrate

Chain of Cruzipain (Trypanosoma cruzi) (P25779 123-467 limits assumed): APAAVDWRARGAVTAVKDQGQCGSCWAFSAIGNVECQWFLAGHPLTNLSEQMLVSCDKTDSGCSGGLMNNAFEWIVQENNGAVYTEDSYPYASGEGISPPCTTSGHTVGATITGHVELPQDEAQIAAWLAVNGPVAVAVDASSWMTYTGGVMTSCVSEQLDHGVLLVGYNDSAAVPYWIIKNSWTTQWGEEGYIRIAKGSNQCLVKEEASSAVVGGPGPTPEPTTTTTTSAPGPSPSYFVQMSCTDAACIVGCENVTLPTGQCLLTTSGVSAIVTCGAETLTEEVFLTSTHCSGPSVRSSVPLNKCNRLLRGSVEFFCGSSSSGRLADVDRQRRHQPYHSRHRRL
Chain of Cruzipain (P25779 whole entry): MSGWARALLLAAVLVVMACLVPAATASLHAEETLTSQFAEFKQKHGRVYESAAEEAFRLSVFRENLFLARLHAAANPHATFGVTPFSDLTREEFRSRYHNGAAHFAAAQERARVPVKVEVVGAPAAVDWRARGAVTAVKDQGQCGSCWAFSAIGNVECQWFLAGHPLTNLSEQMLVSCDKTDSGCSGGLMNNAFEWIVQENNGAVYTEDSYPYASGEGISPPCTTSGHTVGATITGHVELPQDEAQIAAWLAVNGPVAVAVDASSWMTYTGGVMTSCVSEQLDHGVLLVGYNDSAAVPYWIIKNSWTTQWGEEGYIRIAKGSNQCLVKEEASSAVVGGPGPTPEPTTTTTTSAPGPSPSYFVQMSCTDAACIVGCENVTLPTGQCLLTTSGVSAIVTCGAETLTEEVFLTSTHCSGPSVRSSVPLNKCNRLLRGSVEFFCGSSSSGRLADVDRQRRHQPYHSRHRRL

| Structure (SMILES) | Ki [1] | EC50 [2] | CC50 [3] | inhibition [4] | koff [5] | inhibition [6] | Ratio [7] |
| --- | --- | --- | --- | --- | --- | --- | --- |
| Cc1coc(NC(=O)[C@H](Cc2ccccc2)NC(=O)OCc2ccccc2)n1 | 25.1 µM | 39.8 µM | > 100 µM | – | – | – | – |
| O=C(N[C@@H](Cc1ccccc1)C(=O)NCC=NO)OCc1ccccc1 | 0.1 µM | – | – | Active | – | – | – |
| N#CC1(NC(=O)[C@H](Cc2ccccc2)NC(=O)OCc2ccccc2)CC1 | 6.31 µM | > 100 µM | > 100 µM | – | – | – | – |
| CN(C#N)N(C)C(=O)[C@H](Cc1ccccc1)NC(=O)c1cc(C(C)(C)C)nn1C | 0.00158 µM | – | – | – | 0.012 s⁻¹ | – | – |
| O=C(N[C@@H](Cc1ccccc1)C(=O)Nc1cnoc1)OCc1ccccc1 | 10 µM | > 100 µM | > 100 µM | – | – | – | – |
| CNC(=O)/C=C/C1(NC(=O)[C@H](Cc2ccccc2)NC(=O)OCc2ccccc2)CC1 | 398 µM | – | – | Active | – | – | – |
| N#CCNC(=O)[C@H](Cc1ccccc1)NC(=O)OCc1ccccc1 | – | > 100 µM | > 100 µM | Active | – | – | – |
| CCOC(=O)/C=C/C1(NC(=O)[C@H](Cc2ccccc2)NC(=O)OCc2ccccc2)CC1 | 126 µM | – | – | Active | – | – | – |
| CCOC(=O)/C=C/CNC(=O)[C@H](Cc1ccccc1)NC(=O)OCc1ccccc1 | 1.58 µM | – | – | – | – | Active | 9.8 ×10³ /s/M |
| CC(C)C[C@H](NC(=O)c1cc(C(C)(C)C)nn1C)C(=O)N(C)N(C)C#N | – | 12.6 µM | – | – | – | – | – |
| CC(C)C[C@H](NC(=O)OC(C)(C)C)C(=O)N(C)N(C)C#N | 0.01 µM | 39.8 µM | 50.1 µM | Active | 0.0053 s⁻¹ | – | – |
| CN(C#N)N(C)C(=O)[C@H](Cc1ccccc1)NC(=O)OCc1ccccc1 | 0.002 µM | 5.01 µM | 10 µM | Active | 0.011 s⁻¹ | – | – |
| O=CC1(NC(=O)[C@H](Cc2ccccc2)NC(=O)OCc2ccccc2)CC1 (Cbz-Phe-[Ac3c]-aldehyde) | 3.98 µM | – | – | – | – | – | – |
| CCOC(=O)/C=C\CNC(=O)[C@H](Cc1ccccc1)NC(=O)OCc1ccccc1 | 6.31 µM | – | – | Active | – | – | – |
| O=CCNC(=O)[C@H](Cc1ccccc1)NC(=O)OCc1ccccc1 (Cbz-Phe-Gly-aldehyde) | 0.00794 µM | – | – | Active | – | – | – |
| CCN(CC)C(=O)/C=C/C1(NC(=O)[C@H](Cc2ccccc2)NC(=O)OCc2ccccc2)CC1 | 200 µM | – | – | Active | – | – | – |
